Source: patent publication US5672715A, “Herbicidal substituted 3-aryl-pyrazoles” (Monsanto Company, priority 1995, dated 1997)
Like-named read-outs stand apart in the source and are kept apart here.

How the values were obtained:
Assay type in all cases: in vivo
Bedstraw Catchweed = experiment: pre-emergence herbicide test; details: Galium aparine, pre-emergence, read-out: % plant inhibition; for inhibition at 200.072 g/ha: 0.1785 lb/A; for inhibition at 1000.92 g/ha: 0.893 lb/A; for inhibition at 5043.82 g/ha: 4.5 lb/A
Summary of the method: (§1)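 Test compound, dissolved or suspended in acetone or water, is applied to a topsoil layer covering freshly sown seeds. Pans stay in a greenhouse with watering from below, and plants are rated for percent inhibition approximately two weeks after treatment.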

Blackgrass [1] = experiment: pre-emergence herbicide test; details: Alopecurus myosuroides, pre-emergence, read-out: % plant inhibition; for inhibition at 200.072 g/ha: 0.1785 lb/A; for inhibition at 1000.92 g/ha: 0.893 lb/A; for inhibition at 5043.82 g/ha: 4.5 lb/A
Summary of the method: as §1

Common Chickweed = experiment: pre-emergence herbicide test; details: pre-emergence, read-out: % plant inhibition; for inhibition at 200.072 g/ha: 0.1785 lb/A; for inhibition at 1000.92 g/ha: 0.893 lb/A; for inhibition at 5043.82 g/ha: 4.5 lb/A
Summary of the method: as §1

Wheat [2] = experiment: pre-emergence herbicide test; details: Triticum aestivum, pre-emergence, read-out: % plant inhibition; for inhibition at 200.072 g/ha: 0.1785 lb/A; for inhibition at 1000.92 g/ha: 0.893 lb/A; for inhibition at 5043.82 g/ha: 4.5 lb/A
Summary of the method: as §1

Blackgrass [3] = experiment: post-emergence herbicide test; details: Alopecurus myosuroides, post-emergence, read-out: % plant inhibition; for inhibition at 200.072 g/ha: 0.1785 lb/A; for inhibition at 1000.92 g/ha: 0.893 lb/A; for inhibition at 5043.82 g/ha: 4.5 lb/A; for inhibition at 7.95803 g/ha: 0.0071 lb/A; for inhibition at 40.0143 g/ha: 0.0357 lb/A
Summary of the method: (§2)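 Post-emergence activity is given as percent inhibition per species. Test compounds were atomizer-sprayed at 170.3 kPa, 1870 L/Ha carrier volume and roughly 0.4% v/v emulsifier onto greenhouse-raised plants aged two to three weeks, at the stated rates.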

Corn = experiment: post-emergence herbicide test; details: Zea mays, post-emergence, read-out: % plant inhibition; for inhibition at 200.072 g/ha: 0.1785 lb/A; for inhibition at 1000.92 g/ha: 0.893 lb/A; for inhibition at 5043.82 g/ha: 4.5 lb/A; for inhibition at 40.0143 g/ha: 0.0357 lb/A
Summary of the method: as §2

Soybean = experiment: post-emergence herbicide test; details: for inhibition at 200.072 g/ha: 0.1785 lb/A; for inhibition at 5043.82 g/ha: 4.5 lb/A; for inhibition at 40.0143 g/ha: 0.0357 lb/A
Summary of the method: as §2

Velvetleaf = experiment: post-emergence herbicide test; details: for inhibition at 200.072 g/ha: 0.1785 lb/A; for inhibition at 5043.82 g/ha: 4.5 lb/A; for inhibition at 40.0143 g/ha: 0.0357 lb/A
Summary of the method: as §2

Wheat [4] = experiment: post-emergence herbicide test; details: for inhibition at 5043.82 g/ha: 4.5 lb/A; for inhibition at 40.0143 g/ha: 0.0357 lb/A
Summary of the method: as §2

[5] = Glycine max, post-emergence, read-out: % plant inhibition
[6] = Glycine max, post-emergence, 0.893 lb/A, read-out: % plant inhibition
[7] = Abutilon theophrasti, post-emergence, read-out: % plant inhibition
[8] = Abutilon theophrasti, post-emergence, 0.893 lb/A, read-out: % plant inhibition
[9] = Triticum aestivum, post-emergence, 0.1785 lb/A, read-out: % plant inhibition
[10] = Triticum aestivum, post-emergence, 0.893 lb/A, read-out: % plant inhibition
[11] = Triticum aestivum, post-emergence, read-out: % plant inhibition

Cn1nc(-c2cc(F)ccc2F)c(C=O)c1C(F)(F)F [Compound 34]
20%: inhibition at 5043.82 g/ha (Velvetleaf; [7])
5%: inhibition at 5043.82 g/ha (Wheat [2])
10%: inhibition at 5043.82 g/ha (Bedstraw Catchweed) | inhibition at 1000.92 g/ha (Soybean; [6]) | inhibition at 5043.82 g/ha (Wheat [4]; [11])
0%: inhibition at 200.072 g/ha (Bedstraw Catchweed) | inhibition at 1000.92 g/ha (Bedstraw Catchweed) | inhibition at 200.072 g/ha (Blackgrass [1]) | inhibition at 1000.92 g/ha (Blackgrass [1]) | inhibition at 200.072 g/ha (Common Chickweed) | inhibition at 1000.92 g/ha (Common Chickweed) | inhibition at 5043.82 g/ha (Common Chickweed) | inhibition at 200.072 g/ha (Wheat [2]) | inhibition at 1000.92 g/ha (Wheat [2]) | inhibition at 200.072 g/ha (Blackgrass [3]; Table 4a) | inhibition at 200.072 g/ha (Blackgrass [3]; Table 5a) | inhibition at 1000.92 g/ha (Blackgrass [3]; Table 4a) | inhibition at 1000.92 g/ha (Blackgrass [3]; Table 5a) | inhibition at 5043.82 g/ha (Blackgrass [3]; Table 4a) | inhibition at 200.072 g/ha (Corn) | inhibition at 1000.92 g/ha (Corn) | inhibition at 200.072 g/ha (Soybean; [5]) | inhibition at 200.072 g/ha (Velvetleaf; [7]) | inhibition at 1000.92 g/ha (Velvetleaf; [8]) | inhibition at 200.072 g/ha (Wheat [4]; [9]) | inhibition at 1000.92 g/ha (Wheat [4]; [10])
30%: inhibition at 5043.82 g/ha (Blackgrass [3]; Table 5a)
25%: inhibition at 5043.82 g/ha (Blackgrass [1])
15%: inhibition at 5043.82 g/ha (Corn) | inhibition at 5043.82 g/ha (Soybean; [5])

Cc1c(-c2cc(F)ccc2F)nn(C)c1C(F)(F)F [Compound 1, 3-(2,5-Difluorophenyl)-1,4-dimethyl-5-(trifluoromethyl)-1H-pyrazole]
15%: inhibition at 5043.82 g/ha (Blackgrass [1])
0%: inhibition at 200.072 g/ha (Bedstraw Catchweed) | inhibition at 1000.92 g/ha (Bedstraw Catchweed) | inhibition at 5043.82 g/ha (Bedstraw Catchweed) | inhibition at 200.072 g/ha (Blackgrass [1]) | inhibition at 1000.92 g/ha (Blackgrass [1]) | inhibition at 200.072 g/ha (Common Chickweed) | inhibition at 1000.92 g/ha (Common Chickweed) | inhibition at 5043.82 g/ha (Common Chickweed) | inhibition at 200.072 g/ha (Wheat [2]) | inhibition at 1000.92 g/ha (Wheat [2]) | inhibition at 200.072 g/ha (Blackgrass [3]; Table 4a) | inhibition at 200.072 g/ha (Blackgrass [3]; Table 5a) | inhibition at 1000.92 g/ha (Blackgrass [3]; Table 4a) | inhibition at 1000.92 g/ha (Blackgrass [3]; Table 5a) | inhibition at 5043.82 g/ha (Blackgrass [3]; Table 4a) | inhibition at 200.072 g/ha (Corn) | inhibition at 1000.92 g/ha (Corn) | inhibition at 200.072 g/ha (Soybean; [5]) | inhibition at 1000.92 g/ha (Soybean; [6]) | inhibition at 5043.82 g/ha (Soybean; [5]) | inhibition at 200.072 g/ha (Velvetleaf; [7]) | inhibition at 1000.92 g/ha (Velvetleaf; [8]) | inhibition at 200.072 g/ha (Wheat [4]; [9]) | inhibition at 1000.92 g/ha (Wheat [4]; [10])
20%: inhibition at 5043.82 g/ha (Velvetleaf; [7])
40%: inhibition at 5043.82 g/ha (Corn)
35%: inhibition at 5043.82 g/ha (Blackgrass [3]; Table 5a)
10%: inhibition at 5043.82 g/ha (Wheat [2]) | inhibition at 5043.82 g/ha (Wheat [4]; [11])

Cc1c(-c2cc(F)c([N+](=O)[O-])cc2F)nn(C)c1C(F)(F)F [Compound 35]
80%: inhibition at 5043.82 g/ha (Blackgrass [1])
35%: inhibition at 1000.92 g/ha (Blackgrass [1]) | inhibition at 1000.92 g/ha (Common Chickweed) | inhibition at 1000.92 g/ha (Blackgrass [3]; Table 5a)
95%: inhibition at 5043.82 g/ha (Common Chickweed)
55%: inhibition at 5043.82 g/ha (Soybean; [5])
15%: % plant inhibition (Wheat [4]; 0.893 lb/A)
30%: inhibition at 200.072 g/ha (Bedstraw Catchweed) | inhibition (Corn; 0.1725 lb/A) | % plant inhibition (Soybean; 0.893 lb/A)
10%: inhibition at 5043.82 g/ha (Wheat [2])
75%: inhibition at 5043.82 g/ha (Corn) | inhibition at 1000.92 g/ha (Velvetleaf; [8])
45%: inhibition at 5043.82 g/ha (Blackgrass [3]; Table 5a) | inhibition at 200.072 g/ha (Velvetleaf; [7])
5%: % plant inhibition (Wheat [4]; 0.1785 lb/A)
0%: inhibition at 200.072 g/ha (Blackgrass [1]) | inhibition at 200.072 g/ha (Common Chickweed) | inhibition at 200.072 g/ha (Wheat [2]) | inhibition at 1000.92 g/ha (Wheat [2]) | inhibition at 7.95803 g/ha (Blackgrass [3]; Table 4a) | inhibition at 7.95803 g/ha (Blackgrass [3]; Table 5a) | inhibition at 40.0143 g/ha (Blackgrass [3]; Table 4a) | inhibition at 40.0143 g/ha (Blackgrass [3]; Table 5a) | inhibition (Blackgrass [3]; 0.1725 lb/A, Table 4a) | inhibition at 200.072 g/ha (Blackgrass [3]; Table 4a) | inhibition at 1000.92 g/ha (Blackgrass [3]; Table 4a) | inhibition at 5043.82 g/ha (Blackgrass [3]; Table 4a) | inhibition at 7.95803 g/ha (Corn; 0.0071 lb/A) | inhibition at 40.0143 g/ha (Corn) | inhibition at 7.95803 g/ha (Soybean; Glycine max, post-emergence, 0.0071 lb/A, read-out: % plant inhibition) | inhibition at 40.0143 g/ha (Soybean; [5]) | inhibition at 7.95803 g/ha (Velvetleaf; Abutilon theophrasti, post-emergence, 0.0071 lb/A, read-out: % plant inhibition) | inhibition at 40.0143 g/ha (Velvetleaf; [7]) | inhibition at 7.95803 g/ha (Wheat [4]; Triticum aestivum, post-emergence, 0.0071 lb/A, read-out: % plant inhibition) | inhibition at 40.0143 g/ha (Wheat [4]; [11])
20%: inhibition at 200.072 g/ha (Corn) | inhibition (Soybean; Glycine max, post-emergence, 0.1725 lb/A, read-out: % plant inhibition) | inhibition at 1000.92 g/ha (Wheat [4]; [10])
70%: % plant inhibition (Velvetleaf; 0.893 lb/A)
100%: inhibition at 1000.92 g/ha (Bedstraw Catchweed) | inhibition at 5043.82 g/ha (Bedstraw Catchweed) | inhibition at 5043.82 g/ha (Velvetleaf; [7])
25%: inhibition at 200.072 g/ha (Soybean; [5]) | inhibition at 5043.82 g/ha (Wheat [4]; [11])

Cc1c(-c2cc(O)c(Cl)cc2F)nn(C)c1C(F)(F)F [Compound 40]
30%: inhibition at 5043.82 g/ha (Blackgrass [3]; Table 4a) | inhibition at 200.072 g/ha (Soybean; [5])
35%: inhibition at 200.072 g/ha (Blackgrass [3]; Table 5a)
70%: inhibition at 1000.92 g/ha (Soybean; [6])
75%: inhibition at 200.072 g/ha (Velvetleaf; [7])
0%: inhibition at 40.0143 g/ha (Blackgrass [3]; Table 4a) | inhibition at 40.0143 g/ha (Blackgrass [3]; Table 5a) | inhibition at 200.072 g/ha (Blackgrass [3]; Table 4a) | inhibition at 40.0143 g/ha (Wheat [4]; [11])
50%: inhibition at 1000.92 g/ha (Blackgrass [3]; Table 4a) | inhibition at 5043.82 g/ha (Corn)
100%: inhibition at 5043.82 g/ha (Blackgrass [3]; Table 5a) | inhibition at 1000.92 g/ha (Velvetleaf; [8]) | inhibition at 5043.82 g/ha (Velvetleaf; [7])
15%: inhibition at 200.072 g/ha (Wheat [4]; [9])
65%: inhibition at 1000.92 g/ha (Blackgrass [3]; Table 5a)
80%: inhibition at 5043.82 g/ha (Soybean; [5])
25%: inhibition at 40.0143 g/ha (Corn) | inhibition at 40.0143 g/ha (Soybean; [5]) | inhibition at 5043.82 g/ha (Wheat [4]; [11])
55%: inhibition at 40.0143 g/ha (Velvetleaf; [7])
85%: inhibition at 1000.92 g/ha (Corn)
45%: inhibition at 200.072 g/ha (Corn)
20%: inhibition at 1000.92 g/ha (Wheat [4]; [10])
